Measurements taken from US20220267313A1, “DIHYDROPYRIMIDINE DERIVATIVES AND USES THEREOF IN THE TREATMENT OF HBV INFECTION OR OF HBV-INDUCED DISEASES” (Janssen Sciences Ireland Unlimited Company, priority 2019, published 2022).

Key:
[1] = tested on: HBV; experiment: Anti-HBV activity: HBV DNA in culture medium by qPCR, HepG2.2.15 cells; type: cell-based; settings: Hepatitis B virus, 144 h, 6 days treatment
Procedure: (§1) HepG2.2.15 (the HepG2.2.15 cell line can be produced by transfection of the HepG2 cell line as described in Sells, Chen, and Acs 1987 (Proc. Natl. Acad. Sci. USA 84: 1005-1009), and the HepG2 cell line is available from ATCC® under number HB-8065™)
(§2) HepG2.2.15 cells were plated into 96-well plate in 2% FBS culture medium at the density of 40,000 cells/well and 5,000 cells/well for HBV inhibitory activity and cytotoxicity determination, respectively. After incubation at 37° C., 5% CO2 overnight, cells were treated with medium containing compounds for 6 days with medium and compounds refreshed after 3 days of treatment. Each compound was tested in a 1:3 serial dilutions at 8 different concentrations in triplicate. The highest concentration of the compounds was 10 uM or 1 uM for anti-HBV activity assay and 100 uM for cytotoxicity determination.
The change of HBV DNA level induced by the compounds was assessed by quantitative real-time polymerase chain reaction (qPCR). Briefly, the HBV DNA in the culture medium was extracted using QIAamp 96 DNA Blood Kit according to the manual and then quantified by real-time PCR assay using the primers and probe in the table 1 below.
(§3) EC50 and CC50 values are calculated by the GRAPHPAD PRISM software.

[2] = Cytotoxicity determination by CCK-8 assay, HepG2.2.15 cells; type: cell-based; settings: human, 6 days treatment
Procedure: as §1, §2
Cell viability was determined by CCK-8 assay. After 6 days of compounds treatment, 20 μl CCK-8 reagents were added to each well of cytotoxicity assay plates. Cell plates were incubated at 37° C., 5% CO2 for 2.5 h. The absorbance at 450 nm wavelength and the absorbance at 630 nm wavelength as reference was measured.
as §3

Row | Compound | EC50 [1] [µM] | CC50 at 6 days [2] [µM]
1 | CCOC(=O)C1=C(C23C4C5C2C2C3C4C52C(=O)O)NC(c2nccs2)=N[C@H]1c1cccc(F)c1C (single isomer, unassigned) [Ib-5, (1R,2R,3R,8S)-4-((S*)-5-(ethoxycarbonyl)-6-(3-fluoro-2-methylphenyl)-2-(thiazol-2-yl)-3,6-dihydropyrimidin-4-yl)cubane-1-carboxylic Acid] | 49 | 0.017
2 | CCOC(=O)C1=C(C23C4C5C2C2C3C4C52C(=O)O)NC(c2nccs2)=NC1c1ccc(Cl)c(F)c1 (single isomer, unassigned) [Ib-23, (S*)-4-(6-(4-chloro-3-fluorophenyl)-5-(ethoxycarbonyl)-2-(thiazol-2-yl)-3,6-dihydropyrimidin-4-yl)cubane-1-carboxylic Acid] | > 6.25 | 0.013
3 | COC(=O)C1=C(C23C4C5C2C2C3C4C52C(=O)O)NC(c2nccs2)=N[C@@H]1c1ccc(F)cc1Br (stereo in doubt) [Ib-16, (2S,3S,5S,6S,7S,8S)-4-((S*)-6-(2-bromo-4-fluorophenyl)-5-(methoxycarbonyl)-2-(thiazol-2-yl)-3,6-dihydropyrimidin-4-yl)cubane-1-carboxylic Acid] | > 50 | 0.071
4 | CCOC(=O)C1=C(C23C4C5C2C2C3C4C52C(=O)O)NC(c2nccs2)=NC1c1ccc(F)cc1C (single isomer, unassigned) [Ia-5, (R*)-4-(5-(ethoxycarbonyl)-6-(4-fluoro-2-methylphenyl)-2-(thiazol-2-yl)-3,6-dihydropyrimidin-4-yl)cubane-1-carboxylic Acid] | > 50 | 0.043
5 | CCOC(=O)C1=C(C23C4C5C2C2C3C4C52C(=O)O)NC(c2nccs2)=N[C@@H]1c1cccc(F)c1Cl (stereo in doubt) [Ib-15, (2S,3S,5S,6S,7S,8S)-4-((S*)-6-(2-chloro-3-fluorophenyl)-5-(ethoxycarbonyl)-2-(thiazol-2-yl)-3,6-dihydropyrimidin-4-yl)cubane-1-carboxylic Acid] | > 50 | 0.019
6 | COC(=O)C1=C(C23C4C5C2C2C3C4C52C(=O)O)NC(c2nccs2)=N[C@@H]1c1cccc(F)c1Br (stereo in doubt) [Ib-17, (2S,3S,5S,6S,7S,8S)-4-((S*)-6-(2-bromo-3-fluorophenyl)-5-(methoxycarbonyl)-2-(thiazol-2-yl)-3,6-dihydropyrimidin-4-yl)cubane-1-carboxylic Acid] | 25 | 0.125
7 | CCOC(=O)C1=C(C23C4C5C2C2C3C4C52CC(C)(C)C(=O)O)NC(c2nccs2)=N[C@@H]1c1ccc(F)c(F)c1Cl (single isomer, unassigned) [Ib-28, (S*)-3-(4-(6-(2-chloro-3,4-difluorophenyl)-5-(ethoxycarbonyl)-2-(thiazol-2-yl)-3,6-dihydropyrimidin-4-yl)cuban-1-yl)-2,2-dimethylpropanoic Acid] | 16 | 0.0265
8 | COC(=O)C1=C(C23C4C5C2C2C3C4C52CC(=O)O)NC(c2nccs2)=N[C@@H]1c1ccc(F)cc1Cl (single isomer, unassigned) [Ib-1, 2-((1S,2R,3R,8S)-4-((S*)-6-(2-chloro-4-fluorophenyl)-5-(methoxycarbonyl)-2-(thiazol-2-yl)-3,6-dihydropyrimidin-4-yl)cuban-1-yl)acetic Acid] | 42 | 0.36
9 | COC(=O)C1=C(C23C4C5C2C2C3C4C52C(=O)O)NC(c2nccs2)=N[C@@H]1c1cccc(F)c1C (stereo in doubt) [Ia-1, (2R,3R,5R,6R,7R,8R)-4-((R*)-6-(3-fluoro-2-methylphenyl)-5-(methoxycarbonyl)-2-(thiazol-2-yl)-3,6-dihydropyrimidin-4-yl)cubane-1-carboxylic Acid] | > 50 | 0.204
10 | CCOC(=O)C1=C(C23C4C5C2C2C3C4C52C(=O)O)NC(c2nccs2)=N[C@@H]1c1cccc(F)c1Br (single isomer, unassigned) [Ib-19, (1S,2R,3S,8S)-4-((S*)-6-(2-bromo-3-fluorophenyl)-5-(ethoxycarbonyl)-2-(thiazol-2-yl)-3,6-dihydropyrimidin-4-yl)cubane-1-carboxylic Acid] | > 25 | 0.0125
11 | CCOC(=O)C1=C(C23C4C5C2C2C3C4C52C(=O)O)NC(c2nccs2)=N[C@H]1c1ccc(F)cc1 (stereo in doubt) [Ib-24, (2S,3S,5S,6S,7S,8S)-4-((S*)-5-(ethoxycarbonyl)-6-(4-fluorophenyl)-2-(thiazol-2-yl)-3,6-dihydropyrimidin-4-yl)cubane-1-carboxylic Acid] | > 25 | 0.223
12 | CCOC(=O)C1=C(C23C4C5C2C2C3C4C52C(=O)O)NC(c2nccs2)=N[C@@H]1c1ccc(F)cc1Cl (stereo in doubt) [Ib-6, (2S,3S,5S,6S,7S,8S)-4-((S*)-6-(2-chloro-4-fluorophenyl)-5-(ethoxycarbonyl)-2-(thiazol-2-yl)-3,6-dihydropyrimidin-4-yl)cubane-1-carboxylic Acid] | > 50 | 0.018
13 | CCCOC(=O)C1=C(C23C4C5C2C2C3C4C52C(=O)O)NC(c2nccs2)=NC1c1ccc(F)c(F)c1Cl (single isomer, unassigned) [Ib-11, (S*)-4-(6-(2-chloro-3,4-difluorophenyl)-5-(propoxycarbonyl)-2-(thiazol-2-yl)-3,6-dihydropyrimidin-4-yl)cubane-1-carboxylic Acid] | 22 | 0.052
14 | COC(=O)C1=C(C23C4C5C2C2C3C4C52C(=O)O)NC(c2nccs2)=N[C@@H]1c1cccc(F)c1Cl (single isomer, unassigned) [Ib-8, (1S,2R,3S,8S)-4-((S*)-6-(2-chloro-3-fluorophenyl)-5-(methoxycarbonyl)-2-(thiazol-2-yl)-3,6-dihydropyrimidin-4-yl)cubane-1-carboxylic Acid] | > 50 | 0.132
15 | CCOC(=O)C1=C(C23C4C5C2C2C3C4C52C(=O)O)NC(c2nccs2)=N[C@@H]1c1ccc(F)c(F)c1Cl (stereo in doubt) [Ib-7, (2S,3S,5S,6S,7S,8S)-4-((S*)-6-(2-chloro-3,4-difluorophenyl)-5-(ethoxycarbonyl)-2-(thiazol-2-yl)-3,6-dihydropyrimidin-4-yl)cubane-1-carboxylic Acid] | 25 | 0.005
16 | CC(C)OC(=O)C1=C(C23C4C5C2C2C3C4C52C(=O)O)NC(c2nccs2)=NC1c1ccc(F)c(F)c1Cl (single isomer, unassigned) [Ib-12, (S*)-6-(6-Carboxy-cuban-3-yl)-4-(2-chloro-3,4-difluoro-phenyl)-2-thiazol-2-yl-1,4-dihydro-pyrimidine-5-carboxylic Acid Isopropyl Ester] | 28 | 0.037
17 | COC(=O)C1=C(C23C4C5C2C2C3C4C52C(=O)O)NC(c2nccs2)=N[C@@H]1c1ccc(F)c(F)c1Br (stereo in doubt) [Ib-13, (2S,3S,5S,6S,7S,8S)-4-((S*)-6-(2-bromo-3,4-difluorophenyl)-5-(methoxycarbonyl)-2-(thiazol-2-yl)-3,6-dihydropyrimidin-4-yl)cubane-1-carboxylic Acid] | > 25 | 0.027
18 | COC(=O)C1=C(C23C4C5C2C2C3C4C52C(=O)O)NC(c2nccs2)=NC1c1ccc(F)cc1C (single isomer, unassigned) [Ib-21, (S*)-4-(6-(4-fluoro-2-methylphenyl)-5-(methoxycarbonyl)-2-(thiazol-2-yl)-3,6-dihydropyrimidin-4-yl)cubane-1-carboxylic Acid] | > 50 | 0.25
19 | COC(=O)C1=C(C23C4C5C2C2C3C4C52c2nc(C(=O)O)co2)NC(c2nccs2)=N[C@@H]1c1ccc(F)cc1Cl (single isomer, unassigned) [Ib-2, 2-((1R,2R,3R,8S)-4-((S*)-6-(2-chloro-4-fluoro-phenyl)-5-(methoxycarbonyl)-2-(thiazol-2-yl)-3,6-dihydropyrimidin-4-yl)cuban-1-yl)oxazole-4-carboxylic Acid] | 24 | 0.11
20 | COC(=O)C1=C(C23C4C5C2C2C3C4C52C(=O)O)NC(c2nccs2)=N[C@@H]1c1ccc(F)c(F)c1C (single isomer, unassigned) [Ia-3] | > 50 | 0.045
21 | COC(=O)C1=C(C23C4C5C2C2C3C4C52C(=O)O)NC(c2nccs2)=N[C@@H]1c1ccc(F)c(F)c1F (stereo in doubt) [Ib-22, (S*)-4-((2,3,4-trifluorophenyl)-6-(methoxycarbonyl)-2-(thiazolel-4-yl))-1,4-dihydropyrimidin-4-yl)cubane-5-carboxylic Acid] | > 25 | 0.282
22 | CCOC(=O)C1=C(C23C4C5C2C2C3C4C52C(=O)O)NC(c2nccs2)=N[C@@H]1c1ccc(F)c(F)c1Br (stereo in doubt) [Ib-14, (2S,3S,5S,6S,7S,8S)-4-((S*)-6-(2-bromo-3,4-difluorophenyl)-5-(ethoxycarbonyl)-2-(thiazol-2-yl)-3,6-dihydropyrimidin-4-yl)cubane-1-carboxylic Acid] | 41 | 0.007
